The text below walks through data of US12195473B2, “KRAS mutant protein inhibitors” (JACOBIO PHARMACEUTICALS CO., LTD, priority 2019, dated 2025).

This assay has as its system HIS-KRAS (G12C). It is filed as biochemical. As to conditions: read-out: SOS1 catalyzed nucleotide exchange IC50.
The mark [1] stands for this setting: GDP-loaded HIS-KRAS (G12C), 1 hour pre-incubation with compound, TR-FRET.

Like-named read-outs stand apart in the source and are kept apart here.

As a reminder, the IC50 is the point on the concentration scale where inhibition reaches its midpoint. In the case of `C=CC(=O)N1CCN(c2c(C#N)c(=O)n(-c3c(C)ccnc3C(C)C)c3nc(-c4c(N)c(F)c(F)c(F)c4Cl)c(Cl)cc23)C[C@H]1C` (single isomer, unassigned) [Compound 10-1], under setting [1], the IC50 worked out at 43.9 nM.

On to `C=CC(=O)N1CCN(c2c(C#N)c(=O)n(-c3c(C)ccnc3C(C)C)c3nc(-c4c(N)c(F)c(F)c(F)c4Cl)c(Cl)cc23)C[C@H]1C` (single isomer, unassigned) [Compound 10-2], for which the 50% inhibitory concentration (IC50) under setting [1] was found to be 4.16 nM.

Consider `C=CC(=O)N1CCN(c2c(C#N)c(=O)n(-c3c(C)ccnc3C(C)C)c3nc(-c4c(N)c(F)c(F)c(F)c4F)c(Cl)cc23)[C@@H](C)C1` (single isomer, unassigned) [Compound 11-1], for which the IC50 under setting [1] turned out to be 29.6 nM.

`C=CC(=O)N1CCN(c2c(C#N)c(=O)n(-c3c(C)ccnc3C(C)C)c3nc(-c4c(N)c(F)c(F)c(F)c4F)c(Cl)cc23)[C@@H](C)C1` (single isomer, unassigned) [Compound 11-2]: the IC50 under setting [1] came out at 2.11 nM.

Regarding `C=CC(=O)N1CCN(c2c(C#N)c(=O)n(-c3c(C)ccnc3C(C)C)c3nc(-c4c(F)c(F)c(F)c(N)c4Cl)c(Cl)cc23)CC1` (single isomer, unassigned) [Compound 12-1, 4-(4-acryloylpiperazin-1-yl)-7-(3-amino-2-chloro-4,5,6-trifluorophenyl)-6-chloro-1-(2-isopropyl-4-methylpyridin-3-yl)-2-oxo-1,2-dihydro-1,8-naphthyridine-3-carbonitrile], the IC50 under setting [1] was found to be 16 nM.

For `C=CC(=O)N1CCN(c2c(C#N)c(=O)n(-c3c(C)ccnc3C(C)C)c3nc(-c4c(F)c(F)c(F)c(N)c4Cl)c(Cl)cc23)CC1` (single isomer, unassigned) [Compound 12-2, 4-(4-acryloylpiperazin-1-yl)-7-(3-amino-2-chloro-4,5,6-trifluorophenyl)-6-chloro-1-(2-isopropyl-4-methylpyridin-3-yl)-2-oxo-1,2-dihydro-1,8-naphthyridine-3-carbonitrile], the IC50 is 2.01 nM.

For `C=CC(=O)N1[C@H](C)CN(c2c(C#N)c(=O)n(-c3c(C)ccnc3C(C)C)c3nc(-c4c(N)c(F)c(F)c(F)c4F)c(Cl)cc23)C[C@@H]1C` (single isomer, unassigned) [Compound 13-1], the IC50 under setting [1] was determined as 2.73 nM.

With `C=CC(=O)N1[C@H](C)CN(c2c(C#N)c(=O)n(-c3c(C)ccnc3C(C)C)c3nc(-c4c(N)c(F)c(F)c(F)c4F)c(Cl)cc23)C[C@@H]1C` (single isomer, unassigned) [Compound 13-2], the IC50 under setting [1] was determined as 11.5 nM.

For the molecule `C=CC(=O)N1CCN(c2c(C#N)c(=O)n(-c3c(C)ccnc3C(C)C)c3nc(-c4c(F)c(F)c(F)c(N)c4Cl)c(Cl)cc23)[C@@H](C)C1` (single isomer, unassigned) [Compound 15-1], under setting [1], the IC50 is 6.87 nM.

For `C=CC(=O)N1CCN(c2c(C#N)c(=O)n(-c3c(C)ccnc3C(C)C)c3nc(-c4c(F)c(F)c(F)c(N)c4Cl)c(Cl)cc23)[C@@H](C)C1` (single isomer, unassigned) [Compound 15-2], the IC50 under setting [1] was determined as 83.9 nM.

For the molecule `C=CC(=O)N1[C@H](C)CN(c2c(C#N)c(=O)n(-c3c(C)ccnc3C(C)C)c3nc(-c4ccccc4F)c(Cl)cc23)C[C@@H]1C` [Amgen 7.3, 4-((3S,5R)-4-acryloyl-3,5-dimethylpiperazin-1-yl)-6-chloro-7-(2-fluorophenyl)-1-(2-isopropyl-4-methylpyridin-3-yl)-2-oxo-1,2-dihydro-1,8-naphthyridine-3-carbonitrile, reference compound], the IC50 under setting [1] is 10.5 nM.

Turning to `C=CC(=O)N1CCN(c2c(C#N)c(=O)n(-c3c(C)ccnc3C(C)C)c3nc(-c4c(Cl)c(N)c(F)c(F)c4Cl)c(Cl)cc23)CC1` [Compound 2, 4-(4-acryloylpiperazin-1-yl)-7-(3-amino-2,6-dichloro-4,5-difluorophenyl)-6-chloro-1-(2-isopropyl-4-methylpyridin-3-yl)-2-oxo-1,2-dihydro-1,8-naphthyridine-3-carbonitrile], the IC50 under setting [1] turned out to be 6.66 nM.

As to `C=CC(=O)N1CCN(c2c(C#N)c(=O)n(-c3c(C)ccnc3C(C)C)c3nc(-c4c(N)c(Cl)c(F)c(F)c4F)c(Cl)cc23)CC1` [Compound 3, 4-(4-acryloylpiperazin-1-yl)-7-(2-amino-3-chloro-4,5,6-trifluorophenyl)-6-chloro-1-(2-isopropyl-4-methylpyridin-3-yl)-2-oxo-1,2-dihydro-1,8-naphthyridine-3-carbonitrile], the IC50 under setting [1] turned out to be 3.67 nM.

With `C=CC(=O)N1CCN(c2c(C#N)c(=O)n(-c3c(C)ccnc3C(C)C)c3nc(-c4c(N)c(Cl)c(F)c(Cl)c4F)c(Cl)cc23)CC1` [Compound 4, 4-(4-acryloylpiperazin-1-yl)-7-(2-amino-3,5-dichloro-4,6-difluorophenyl)-6-chloro-1-(2-isopropyl-4-methylpyridin-3-yl)-2-oxo-1,2-dihydro-1,8-naphthyridine-3-carbonitrile], under setting [1], the IC50 was 3.48 nM.

For the molecule `C=CC(=O)N1CCN(c2c(C#N)c(=O)n(-c3c(C)ccnc3C(C)C)c3nc(-c4c(F)c(N)c(F)c(F)c4F)c(Cl)cc23)CC1` [Compound 6, 4-(4-acryloylpiperazin-1-yl)-7-(3-amino-2,4,5,6-tetrafluorophenyl)-6-chloro-1-(2-isopropyl-4-methylpyridin-3-yl)-2-oxo-1,2-dihydro-1,8-naphthyridine-3-carbonitrile], the IC50 under setting [1] turned out to be 1.51 nM.

On to `C=CC(=O)N1[C@H](C)CN(c2c(C#N)c(=O)n(-c3c(C)ccnc3C(C)C)c3nc(-c4c(F)c(F)c(F)c(N)c4Cl)c(Cl)cc23)C[C@@H]1C` [Compound 7, 4-((3S,5R)-4-acryloyl-3,5-dimethylpiperazin-1-yl)-7-(3-amino-2-chloro-4,5,6-trifluorophenyl)-6-chloro-1-(2-isopropyl-4-methylpyridin-3-yl)-2-oxo-1,2-dihydro-1,8-naphthyridine-3-carbonitrile], for which, under setting [1], the IC50 was 14.9 nM.

On to `C=CC(=O)N1[C@H](C)CN(c2c(C#N)c(=O)n(-c3c(C)ccnc3C(C)C)c3nc(-c4c(F)c(N)c(F)c(F)c4F)c(Cl)cc23)C[C@@H]1C` [Compound 8, 4-((3S,5R)-4-acryloyl-3,5-dimethylpiperazin-1-yl)-7-(3-amino-2,4,5,6-tetrafluorophenyl)-6-chloro-1-(2-isopropyl-4-methylpyridin-3-yl)-2-oxo-1,2-dihydro-1,8-naphthyridine-3-carbonitrile], for which the IC50 under setting [1] was 6.68 nM.

With `C=CC(=O)N1CCN(c2c(C#N)c(=O)n(-c3c(C)ccnc3C(C)C)c3nc(-c4c(N)c(F)c(F)c(F)c4F)c(Cl)cc23)C[C@H]1C` [Compound 9, 4-((R)-4-acryloyl-3-methylpiperazin-1-yl)-7-(2-amino-3,4,5,6-tetrafluorophenyl)-6-chloro-1-(2-isopropyl-4-methylpyridin-3-yl)-2-oxo-1,2-dihydro-1,8-naphthyridine-3-carbonitrile], the IC50 under setting [1] is 2.3 nM.

As to `C=CC(=O)N1CCN(c2c(C#N)c(=O)n(-c3c(C)ccnc3C(C)C)c3nc(-c4c(F)c(F)c(F)c(N)c4Cl)c(Cl)cc23)CC1` [Compound 12, 4-(4-acryloylpiperazin-1-yl)-7-(3-amino-2-chloro-4,5,6-trifluorophenyl)-6-chloro-1-(2-isopropyl-4-methylpyridin-3-yl)-2-oxo-1,2-dihydro-1,8-naphthyridine-3-carbonitrile], the IC50 worked out at 3.85 nM.

With `C=CC(=O)N1[C@H](C)CN(c2c(C#N)c(=O)n(-c3c(C)ccnc3C(C)C)c3nc(-c4c(N)c(F)c(F)c(F)c4F)c(Cl)cc23)C[C@@H]1C` [Compound 13, 4-((3S,5R)-4-acryloyl-3,5-dimethylpiperazin-1-yl)-7-(2-amino-3,4,5,6-tetrafluorophenyl)-6-chloro-1-(2-isopropyl-4-methylpyridin-3-yl)-2-oxo-1,2-dihydro-1,8-naphthyridine-3-carbonitrile], the IC50 under setting [1] was determined as 6.63 nM.

In the case of `C=CC(=O)N1CCN(c2c(C#N)c(=O)n(-c3c(C)ccnc3C(C)C)c3nc(-c4c(N)c(F)c(F)c(F)c4F)c(Cl)cc23)C[C@H]1C` [Compound 14, 4-((R)-4-acryloyl-3-methylpiperazin-1-yl)-7-(2-amino-3,4,5,6-tetrafluorophenyl)-6-chloro-1-(2-isopropyl-4-methylpyridin-3-yl)-2-oxo-1,2-dihydro-1,8-naphthyridine-3-carbonitrile], the IC50 under setting [1] came out at 3.56 nM.

With `C=CC(=O)N1CCN(c2c(C#N)c(=O)n(-c3c(C)ccnc3C(C)C)c3nc(-c4c(N)cccc4F)c(Cl)cc23)CC1` [Compound A, 4-(4-acryloylpiperazin-1-yl)-7-(2-amino-6-fluorophenyl)-6-chloro-1-(2-isopropyl-4-methylpyridin-3-yl)-2-oxo-1,2-dihydro-1,8-naphthyridine-3-carbonitrile, reference compound], the IC50 under setting [1] came to 1.69 nM.
